Results reported in US8530667B2, “Herbicides” (Syngenta Limited, priority 2007, dated 2013).

How the values were obtained:
Format in all cases: in vivo
Avena fatua (AVEFA) [1] = assay: Example A pre-emergence herbicidal activity, glasshouse pot test; conditions: evaluated 19 or 20 days later, read-out: Pre-Emergence Activity AVEFA (100=total damage to plant; 0=no damage to plant); for pest or weed control at 250 g/ha: Rate 250 g/ha; for pest or weed control at 500 g/ha: Rate 500 g/ha
Protocol: (§1) Seeds of a variety of test species were sown in standard soil in pots. After cultivation for one day (pre-emergence) or after 10 days cultivation (post-emergence) under controlled conditions in a glasshouse, the plants were sprayed with an aqueous spray solution derived from the formulation of the technical active ingredient in 0.6 ml acetone and 45 ml formulation solution containing 10.6% Emulsogen EL (Registry number 61791-12-6), 42.2% N-methylpyrrolidone, 42.2% dipropylene glycol monomethyl ether (Registry number 34590-94-8) and 0.2% X-77 (Registry number 11097-66-8). The test plants were then grown in a greenhouse under optimum conditions until, 14 or 15 days later for post-emergence and 19 or 20 days for pre-emergence, the test was evaluated (100=total damage to plant; 0=no damage to plant). Alopecurus myosuroides (ALOMY), Avena fatua (AVEFA), Lolium perenne (LOLPE), Setaria faberi (SETFA), Digitaria sanguinalis (DIGSA), Echinochloa crus-galli (ECHCG)

[2] = tested on: Digitaria sanguinalis (DIGSA); assay: as above; conditions: evaluated 19 or 20 days later, read-out: Pre-Emergence Activity DIGSA (100=total damage to plant; 0=no damage to plant); for pest or weed control at 250 g/ha: Rate 250 g/ha; for pest or weed control at 500 g/ha: Rate 500 g/ha
Protocol: as §1

[3] = tested on: Echinochloa crus-galli (ECHCG); assay: as above; conditions: evaluated 19 or 20 days later, read-out: Pre-Emergence Activity ECHCG (100=total damage to plant; 0=no damage to plant); for pest or weed control at 250 g/ha: Rate 250 g/ha; for pest or weed control at 500 g/ha: Rate 500 g/ha
Protocol: as §1

Setaria faberi (SETFA) [4] = assay: as above; conditions: evaluated 19 or 20 days later, read-out: Pre-Emergence Activity SETFA (100=total damage to plant; 0=no damage to plant); for pest or weed control at 250 g/ha: Rate 250 g/ha; for pest or weed control at 500 g/ha: Rate 500 g/ha
Protocol: as §1

Lolium perenne (LOLPE) [5] = assay: as above; conditions: evaluated 19 or 20 days later, read-out: Pre-Emergence Activity LOLPE (100=total damage to plant; 0=no damage to plant); for pest or weed control at 250 g/ha: Rate 250 g/ha; for pest or weed control at 500 g/ha: Rate 500 g/ha
Protocol: as §1

[6] = tested on: Alopecurus myosuroides (ALOMY); assay: as above; conditions: evaluated 19 or 20 days later, read-out: Pre-Emergence Activity ALOMY (100=total damage to plant; 0=no damage to plant); for pest or weed control at 250 g/ha: Rate 250 g/ha; for pest or weed control at 500 g/ha: Rate 500 g/ha
Protocol: as §1

Avena fatua (AVEFA) [7] = assay: Example A post-emergence herbicidal activity, glasshouse pot test; conditions: Rate 125 g/ha, evaluated 14 or 15 days later, read-out: Post-Emergence Activity AVEFA (100=total damage to plant; 0=no damage to plant)
Protocol: as §1

[8] = tested on: Digitaria sanguinalis (DIGSA); assay: as above; conditions: Rate 125 g/ha, evaluated 14 or 15 days later, read-out: Post-Emergence Activity DIGSA (100=total damage to plant; 0=no damage to plant)
Protocol: as §1

[9] = tested on: Echinochloa crus-galli (ECHCG); assay: as above; conditions: Rate 125 g/ha, evaluated 14 or 15 days later, read-out: Post-Emergence Activity ECHCG (100=total damage to plant; 0=no damage to plant)
Protocol: as §1

Setaria faberi (SETFA) [10] = assay: as above; conditions: Rate 125 g/ha, evaluated 14 or 15 days later, read-out: Post-Emergence Activity SETFA (100=total damage to plant; 0=no damage to plant)
Protocol: as §1

Lolium perenne (LOLPE) [11] = assay: as above; conditions: Rate 125 g/ha, evaluated 14 or 15 days later, read-out: Post-Emergence Activity LOLPE (100=total damage to plant; 0=no damage to plant)
Protocol: as §1

[12] = tested on: Alopecurus myosuroides (ALOMY); assay: as above; conditions: Rate 125 g/ha, evaluated 14 or 15 days later, read-out: Post-Emergence Activity ALOMY (100=total damage to plant; 0=no damage to plant)
Protocol: as §1

SMILES	pest or weed control at 250 g/ha (Avena fatua (AVEFA) [1])	pest or weed control at 250 g/ha [2]	pest or weed control at 250 g/ha [3]	pest or weed control at 250 g/ha (Setaria faberi (SETFA) [4])	pest or weed control at 250 g/ha (Lolium perenne (LOLPE) [5])	pest or weed control at 250 g/ha [6]	pest or weed control at 125 g/ha (Avena fatua (AVEFA) [7])	pest or weed control at 125 g/ha [8]	pest or weed control at 125 g/ha [9]	pest or weed control at 125 g/ha (Setaria faberi (SETFA) [10])	pest or weed control at 125 g/ha (Lolium perenne (LOLPE) [11])	pest or weed control at 125 g/ha [12]	pest or weed control at 500 g/ha (Avena fatua (AVEFA) [1])	pest or weed control at 500 g/ha [2]	pest or weed control at 500 g/ha [3]	pest or weed control at 500 g/ha (Setaria faberi (SETFA) [4])	pest or weed control at 500 g/ha (Lolium perenne (LOLPE) [5])	pest or weed control at 500 g/ha [6]
Cc1sc(-c2ccc(Cl)cc2)nc1C1C(=O)[C@H]2[C@@H]3CC[C@@](C)(O3)[C@H]2C1=O (mixture of isomers) [Compound T24]	60%	100%	100%	100%	90%	90%	70%	90%	100%	80%	30%	70%	–	–	–	–	–	–
CCc1sc(-c2ccc(Cl)cc2)nc1C1C(=O)[C@H]2[C@@H]3CC[C@@](C)(O3)[C@H]2C1=O (mixture of isomers) [Compound T25, 4-[2-(4-chloro-phenyl)-5-ethyl-thiazol-4-yl]-1-methyl-10-oxa-tricyclo[5.2.1.0*2,6*]decane-3,5-dione]	90%	100%	100%	100%	100%	90%	100%	100%	100%	90%	50%	100%	–	–	–	–	–	–
Cc1sc(-c2ccc(Cl)cc2)cc1C1=C(OC(=O)C(C)C)[C@@H]2[C@H](C1=O)[C@H]1CC[C@@H]2O1 (racemic) [Compound P2]	0%	0%	50%	0%	50%	30%	90%	80%	100%	80%	70%	90%	–	–	–	–	–	–
Cc1sc(-c2ccc(Cl)cc2)nc1C1C(=O)[C@@H]2[C@H](C1=O)[C@@]1(C)CC[C@]2(C)O1 (stereo partly drawn) [Compound T26]	60%	100%	80%	100%	70%	90%	0%	30%	0%	0%	0%	10%	–	–	–	–	–	–
CCc1c(Br)sc(C)c1C1C(=O)[C@@H]2[C@H](C1=O)[C@H]1CC[C@@H]2O1 (stereo partly drawn) [Compound T14, 4-(5-bromo-4-ethyl-2-methyl-thiophen-3-yl)-10-oxa-tricyclo[5.2.1.0*2,6*]decane-3,5-dione]	60%	70%	90%	100%	100%	90%	100%	60%	100%	80%	80%	90%	–	–	–	–	–	–
Cc1scc(Br)c1C1C(=O)[C@@H]2[C@H](C1=O)[C@H]1CC[C@@H]2O1 (stereo partly drawn) [Compound T4]	–	–	–	–	–	–	30%	60%	80%	40%	40%	10%	70%	30%	70%	70%	70%	70%
Cc1sc(-c2ccc(Cl)cc2)cc1C1=C(OC(=O)C(C)(C)C)[C@@H]2[C@H](C1=O)[C@H]1CC[C@@H]2O1 (racemic) [Compound P1]	0%	0%	20%	0%	30%	30%	80%	80%	100%	90%	60%	70%	–	–	–	–	–	–
Cc1csc(C)c1C1C(=O)[C@@H]2[C@H](C1=O)[C@H]1CC[C@@H]2O1 (stereo partly drawn) [Compound T10]	10%	30%	30%	0%	20%	10%	40%	40%	60%	60%	20%	10%	–	–	–	–	–	–
Cc1sc(-c2ccc(Cl)cc2)cc1C1C(=O)[C@@H]2[C@H](C1=O)[C@H]1CC[C@@H]2O1 (stereo partly drawn) [Compound T12]	–	–	–	–	–	–	80%	80%	80%	70%	30%	80%	20%	0%	30%	20%	10%	10%
Cc1sc(-c2ccc(Cl)nc2)nc1C1C(=O)[C@@H]2[C@H](C1=O)[C@H]1CC[C@@H]2O1 (stereo partly drawn) [Compound T30]	30%	60%	80%	70%	40%	10%	10%	70%	70%	40%	20%	0%	–	–	–	–	–	–
Cc1sc(-c2ccccn2)cc1C1C(=O)[C@@H]2[C@H](C1=O)[C@H]1CC[C@@H]2O1 (stereo partly drawn) [Compound T6]	–	–	–	–	–	–	10%	20%	30%	40%	10%	10%	60%	0%	0%	0%	0%	0%
